According to ChEMBL document CHEMBL4507257, “Data for DCP probe ABT-100” (2021):

Columns and labels:
[1] = test system: Tyrosine-protein kinase ABL1 (Homo sapiens), P00519 [H396P]; settings: Compound concentration 1000.0 nM
[2] = molecular target: NUAK family SNF1-like kinase 1 (Homo sapiens) (UniProt O60285); settings: Compound concentration 1000.0 nM
[3] = molecular target: Bone morphogenetic protein receptor type-1A (Homo sapiens) (UniProt P36894); settings: Compound concentration 1000.0 nM
[4] = molecular target: Cytoplasmic tyrosine-protein kinase BMX (Homo sapiens) (UniProt P51813); settings: Compound concentration 1000.0 nM
[5] = molecular target: Protein-tyrosine kinase 6 (Homo sapiens) (UniProt Q13882); settings: Compound concentration 1000.0 nM
[6] = molecular target: Mitotic checkpoint serine/threonine-protein kinase BUB1 (Homo sapiens) (UniProt O43683); settings: Compound concentration 1000.0 nM
[7] = molecular target: Cyclin-dependent kinase 4 (Homo sapiens) (UniProt P11802); settings: Compound concentration 1000.0 nM
[8] = molecular target: Cyclin-dependent kinase 8 (Homo sapiens) (UniProt P49336); settings: Compound concentration 1000.0 nM
[9] = molecular target: Citron Rho-interacting kinase (Homo sapiens) (UniProt O14578); settings: Compound concentration 1000.0 nM
[10] = molecular target: Serine/threonine-protein kinase DCLK3 (Homo sapiens) (UniProt Q9C098); settings: Compound concentration 1000.0 nM
[11] = molecular target: Dual specificity tyrosine-phosphorylation-regulated kinase 1B (Homo sapiens) (UniProt Q9Y463); settings: Compound concentration 1000.0 nM
[12] = test system: Epidermal growth factor receptor (Homo sapiens), P00533 [G719S]; settings: Compound concentration 1000.0 nM
[13] = molecular target: Focal adhesion kinase 1 (Homo sapiens) (UniProt Q05397); settings: Compound concentration 1000.0 nM
[14] = test system: Receptor-type tyrosine-protein kinase FLT3 (Homo sapiens), P36888 [N841I]; settings: Compound concentration 1000.0 nM
[15] = molecular target: Tyrosine-protein kinase FRK (Homo sapiens) (UniProt P42685); settings: Compound concentration 1000.0 nM
[16] = molecular target: Mitogen-activated protein kinase 8 (Homo sapiens) (UniProt P45983); settings: Compound concentration 1000.0 nM
[17] = molecular target: Mast/stem cell growth factor receptor Kit (Homo sapiens) (UniProt P10721); settings: Compound concentration 1000.0 nM
[18] = test system: Mast/stem cell growth factor receptor Kit (Homo sapiens), P10721 [V559D]; settings: Compound concentration 1000.0 nM
[19] = molecular target: Serine/threonine-protein kinase STK11 (Homo sapiens) (UniProt Q15831); settings: Compound concentration 1000.0 nM
[20] = molecular target: Serine/threonine-protein kinase MARK2 (Homo sapiens) (UniProt Q7KZI7); settings: Compound concentration 1000.0 nM
[21] = molecular target: Dual specificity mitogen-activated protein kinase kinase 6 (Homo sapiens) (UniProt P52564); settings: Compound concentration 1000.0 nM
[22] = test system: Hepatocyte growth factor receptor (Homo sapiens), P08581 [Y1235D]; settings: Compound concentration 1000.0 nM
[23] = molecular target: Misshapen-like kinase 1 (Homo sapiens) (UniProt Q8N4C8); settings: Compound concentration 1000.0 nM
[24] = molecular target: MAP kinase-interacting serine/threonine-protein kinase 1 (Homo sapiens) (UniProt Q9BUB5); settings: Compound concentration 1000.0 nM
[25] = molecular target: Serine/threonine-protein kinase MRCK alpha (Homo sapiens) (UniProt Q5VT25); settings: Compound concentration 1000.0 nM
[26] = molecular target: Serine/threonine-protein kinase Nek10 (Homo sapiens) (UniProt Q6ZWH5); settings: Compound concentration 1000.0 nM
[27] = molecular target: Phosphorylase b kinase regulatory subunit alpha, liver isoform (Homo sapiens) (UniProt P46019); settings: Compound concentration 1000.0 nM
[28] = test system: Phosphatidylinositol 4,5-bisphosphate 3-kinase catalytic subunit alpha isoform (Homo sapiens), P42336 [E545A]; settings: Compound concentration 1000.0 nM
[29] = test system: Phosphatidylinositol 4,5-bisphosphate 3-kinase catalytic subunit alpha isoform (Homo sapiens), P42336 [I800L]; settings: Compound concentration 1000.0 nM
[30] = molecular target: Protein kinase C iota type (Homo sapiens) (UniProt P41743); settings: Compound concentration 1000.0 nM
[31] = molecular target: Serine/threonine-protein kinase D1 (Homo sapiens) (UniProt Q15139); settings: Compound concentration 1000.0 nM
[32] = test system: Proto-oncogene tyrosine-protein kinase receptor Ret (Homo sapiens), P07949 [M918T]; settings: Compound concentration 1000.0 nM
[33] = molecular target: Uncharacterized serine/threonine-protein kinase SBK3 (Homo sapiens) (UniProt P0C264); settings: Compound concentration 1000.0 nM
[34] = molecular target: Serine/threonine-protein kinase Sgk3 (Homo sapiens) (UniProt Q96BR1); settings: Compound concentration 1000.0 nM
[35] = molecular target: Serine/threonine-protein kinase SIK1 (Homo sapiens) (UniProt P57059); settings: Compound concentration 1000.0 nM
[36] = molecular target: Tyrosine-protein kinase Srms (Homo sapiens) (UniProt Q9H3Y6); settings: Compound concentration 1000.0 nM
[37] = molecular target: Serine/threonine-protein kinase 33 (Homo sapiens) (UniProt Q9BYT3); settings: Compound concentration 1000.0 nM
[38] = molecular target: Serine/threonine-protein kinase 36 (Homo sapiens) (UniProt Q9NRP7); settings: Compound concentration 1000.0 nM
[39] = molecular target: Activated CDC42 kinase 1 (Homo sapiens) (UniProt Q07912); settings: Compound concentration 1000.0 nM
[40] = molecular target: Non-receptor tyrosine-protein kinase TYK2 (Homo sapiens) (UniProt P29597); settings: Compound concentration 1000.0 nM
[41] = molecular target: Tyrosine-protein kinase receptor TYRO3 (Homo sapiens) (UniProt Q06418); settings: Compound concentration 1000.0 nM
[42] = molecular target: Wee1-like protein kinase (Homo sapiens) (UniProt P30291); settings: Compound concentration 1000.0 nM
[43] = molecular target: Histamine H3 receptor (Homo sapiens) (UniProt Q9Y5N1); settings: Compound concentration 10.0 uM
[44] = molecular target: Alpha-2B adrenergic receptor (Homo sapiens) (UniProt P18089); settings: Compound concentration 10.0 uM
[45] = molecular target: Sigma non-opioid intracellular receptor 1 (Homo sapiens, UniProt Q99720); settings: Compound concentration 10.0 uM

Cytoplasmic tyrosine-protein kinase BMX (Homo sapiens), sequence (P51813 whole entry): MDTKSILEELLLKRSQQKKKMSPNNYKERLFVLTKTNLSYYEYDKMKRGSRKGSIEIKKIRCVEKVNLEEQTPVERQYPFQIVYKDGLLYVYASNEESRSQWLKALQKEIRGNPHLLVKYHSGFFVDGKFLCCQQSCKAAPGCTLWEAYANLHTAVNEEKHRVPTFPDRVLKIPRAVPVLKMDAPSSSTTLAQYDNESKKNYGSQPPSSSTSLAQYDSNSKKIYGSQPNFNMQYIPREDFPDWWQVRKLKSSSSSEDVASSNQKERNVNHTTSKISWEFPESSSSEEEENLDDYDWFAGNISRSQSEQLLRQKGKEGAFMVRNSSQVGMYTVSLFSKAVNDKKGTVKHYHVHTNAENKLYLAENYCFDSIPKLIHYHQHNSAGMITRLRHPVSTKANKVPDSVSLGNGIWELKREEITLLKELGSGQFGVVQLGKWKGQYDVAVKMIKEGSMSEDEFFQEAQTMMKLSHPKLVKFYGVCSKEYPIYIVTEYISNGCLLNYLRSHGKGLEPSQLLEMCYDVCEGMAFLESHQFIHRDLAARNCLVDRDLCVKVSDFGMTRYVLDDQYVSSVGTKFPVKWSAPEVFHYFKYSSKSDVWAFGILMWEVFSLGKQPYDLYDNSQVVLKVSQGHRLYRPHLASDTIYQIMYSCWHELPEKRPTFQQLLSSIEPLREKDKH
Serine/threonine-protein kinase Sgk3 (Homo sapiens), sequence (Q96BR1 whole entry): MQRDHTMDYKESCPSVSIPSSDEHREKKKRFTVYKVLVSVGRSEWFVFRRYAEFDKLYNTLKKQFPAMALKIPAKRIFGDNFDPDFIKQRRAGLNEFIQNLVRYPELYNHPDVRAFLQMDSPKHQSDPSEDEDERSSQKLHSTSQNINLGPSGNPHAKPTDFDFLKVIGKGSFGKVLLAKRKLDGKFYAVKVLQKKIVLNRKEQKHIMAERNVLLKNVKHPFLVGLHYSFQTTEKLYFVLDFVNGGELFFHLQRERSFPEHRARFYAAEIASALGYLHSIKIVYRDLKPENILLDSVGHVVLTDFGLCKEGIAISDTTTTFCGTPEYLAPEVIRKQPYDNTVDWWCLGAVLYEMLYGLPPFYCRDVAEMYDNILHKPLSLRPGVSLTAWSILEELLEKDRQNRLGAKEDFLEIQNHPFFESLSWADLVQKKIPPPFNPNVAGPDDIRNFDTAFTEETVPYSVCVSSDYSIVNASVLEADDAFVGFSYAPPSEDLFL
Cyclin-dependent kinase 4 (Homo sapiens), sequence (P11802 whole entry): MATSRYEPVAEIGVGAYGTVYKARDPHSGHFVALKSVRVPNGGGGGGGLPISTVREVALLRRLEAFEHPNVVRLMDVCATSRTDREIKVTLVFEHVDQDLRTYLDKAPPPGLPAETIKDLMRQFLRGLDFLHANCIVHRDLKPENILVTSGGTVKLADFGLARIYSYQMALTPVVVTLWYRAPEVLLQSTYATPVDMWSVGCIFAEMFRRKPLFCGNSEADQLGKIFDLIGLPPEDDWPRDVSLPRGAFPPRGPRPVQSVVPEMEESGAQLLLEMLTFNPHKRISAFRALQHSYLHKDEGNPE
Focal adhesion kinase 1 (Homo sapiens), sequence (Q05397 2-1052 limits assumed): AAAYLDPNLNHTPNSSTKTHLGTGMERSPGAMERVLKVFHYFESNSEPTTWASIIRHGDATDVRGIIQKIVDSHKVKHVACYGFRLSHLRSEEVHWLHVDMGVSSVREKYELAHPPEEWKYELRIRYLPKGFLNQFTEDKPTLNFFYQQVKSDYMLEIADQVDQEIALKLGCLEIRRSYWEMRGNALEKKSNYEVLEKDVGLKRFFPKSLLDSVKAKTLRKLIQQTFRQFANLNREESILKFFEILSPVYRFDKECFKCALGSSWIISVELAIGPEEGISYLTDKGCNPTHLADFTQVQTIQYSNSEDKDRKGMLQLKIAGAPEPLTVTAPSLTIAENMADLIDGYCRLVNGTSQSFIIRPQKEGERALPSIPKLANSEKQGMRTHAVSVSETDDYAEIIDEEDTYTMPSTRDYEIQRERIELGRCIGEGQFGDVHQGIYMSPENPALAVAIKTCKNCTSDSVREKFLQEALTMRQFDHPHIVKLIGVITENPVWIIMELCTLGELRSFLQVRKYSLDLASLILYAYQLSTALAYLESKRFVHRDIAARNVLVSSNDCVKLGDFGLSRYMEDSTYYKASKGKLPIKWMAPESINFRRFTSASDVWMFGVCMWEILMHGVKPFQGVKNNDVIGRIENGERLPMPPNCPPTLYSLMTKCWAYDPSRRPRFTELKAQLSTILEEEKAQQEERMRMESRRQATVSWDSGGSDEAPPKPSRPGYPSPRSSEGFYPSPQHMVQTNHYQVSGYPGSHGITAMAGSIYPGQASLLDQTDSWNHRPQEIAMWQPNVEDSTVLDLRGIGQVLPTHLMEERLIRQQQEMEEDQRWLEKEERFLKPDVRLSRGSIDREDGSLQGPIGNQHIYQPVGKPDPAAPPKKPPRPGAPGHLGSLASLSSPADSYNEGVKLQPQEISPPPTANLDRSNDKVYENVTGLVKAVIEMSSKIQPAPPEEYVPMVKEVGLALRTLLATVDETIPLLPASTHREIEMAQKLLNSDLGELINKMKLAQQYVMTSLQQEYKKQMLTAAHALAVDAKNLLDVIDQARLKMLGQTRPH
Tyrosine-protein kinase FRK (Homo sapiens), sequence (P42685 whole entry): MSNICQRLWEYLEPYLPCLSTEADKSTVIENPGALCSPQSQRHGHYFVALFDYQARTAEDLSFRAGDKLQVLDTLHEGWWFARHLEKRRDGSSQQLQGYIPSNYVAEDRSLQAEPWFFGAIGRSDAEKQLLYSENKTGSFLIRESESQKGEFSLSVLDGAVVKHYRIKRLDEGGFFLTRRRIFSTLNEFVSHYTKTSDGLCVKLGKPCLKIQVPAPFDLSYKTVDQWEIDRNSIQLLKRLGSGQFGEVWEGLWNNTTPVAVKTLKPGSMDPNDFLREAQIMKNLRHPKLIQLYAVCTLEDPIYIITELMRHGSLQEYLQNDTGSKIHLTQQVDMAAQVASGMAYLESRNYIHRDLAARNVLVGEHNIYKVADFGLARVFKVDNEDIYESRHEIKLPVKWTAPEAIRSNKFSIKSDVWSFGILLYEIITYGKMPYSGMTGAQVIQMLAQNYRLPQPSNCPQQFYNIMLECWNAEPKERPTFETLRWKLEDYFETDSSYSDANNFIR
Serine/threonine-protein kinase MARK2 (Homo sapiens), sequence (Q7KZI7 whole entry): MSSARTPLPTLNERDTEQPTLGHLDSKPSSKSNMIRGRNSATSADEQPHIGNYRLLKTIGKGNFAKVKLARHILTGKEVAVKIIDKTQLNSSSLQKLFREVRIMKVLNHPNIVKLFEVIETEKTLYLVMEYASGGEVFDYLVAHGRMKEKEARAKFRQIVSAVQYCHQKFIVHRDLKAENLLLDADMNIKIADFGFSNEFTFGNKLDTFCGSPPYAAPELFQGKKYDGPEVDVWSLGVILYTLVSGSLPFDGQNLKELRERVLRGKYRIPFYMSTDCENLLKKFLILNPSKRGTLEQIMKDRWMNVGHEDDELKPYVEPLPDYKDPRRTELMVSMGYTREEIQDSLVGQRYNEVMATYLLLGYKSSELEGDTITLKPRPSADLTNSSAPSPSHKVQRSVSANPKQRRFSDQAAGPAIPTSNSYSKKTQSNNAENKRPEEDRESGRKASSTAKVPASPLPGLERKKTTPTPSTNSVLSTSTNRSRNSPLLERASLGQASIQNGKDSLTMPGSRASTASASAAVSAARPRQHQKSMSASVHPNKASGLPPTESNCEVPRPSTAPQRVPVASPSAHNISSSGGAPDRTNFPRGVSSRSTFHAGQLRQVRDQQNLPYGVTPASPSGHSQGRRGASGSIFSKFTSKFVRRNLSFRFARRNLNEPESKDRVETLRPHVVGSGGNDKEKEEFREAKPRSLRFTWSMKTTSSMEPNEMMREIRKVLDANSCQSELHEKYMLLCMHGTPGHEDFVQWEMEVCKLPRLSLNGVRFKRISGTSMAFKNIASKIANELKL
Serine/threonine-protein kinase SIK1 (Homo sapiens), sequence (P57059 whole entry): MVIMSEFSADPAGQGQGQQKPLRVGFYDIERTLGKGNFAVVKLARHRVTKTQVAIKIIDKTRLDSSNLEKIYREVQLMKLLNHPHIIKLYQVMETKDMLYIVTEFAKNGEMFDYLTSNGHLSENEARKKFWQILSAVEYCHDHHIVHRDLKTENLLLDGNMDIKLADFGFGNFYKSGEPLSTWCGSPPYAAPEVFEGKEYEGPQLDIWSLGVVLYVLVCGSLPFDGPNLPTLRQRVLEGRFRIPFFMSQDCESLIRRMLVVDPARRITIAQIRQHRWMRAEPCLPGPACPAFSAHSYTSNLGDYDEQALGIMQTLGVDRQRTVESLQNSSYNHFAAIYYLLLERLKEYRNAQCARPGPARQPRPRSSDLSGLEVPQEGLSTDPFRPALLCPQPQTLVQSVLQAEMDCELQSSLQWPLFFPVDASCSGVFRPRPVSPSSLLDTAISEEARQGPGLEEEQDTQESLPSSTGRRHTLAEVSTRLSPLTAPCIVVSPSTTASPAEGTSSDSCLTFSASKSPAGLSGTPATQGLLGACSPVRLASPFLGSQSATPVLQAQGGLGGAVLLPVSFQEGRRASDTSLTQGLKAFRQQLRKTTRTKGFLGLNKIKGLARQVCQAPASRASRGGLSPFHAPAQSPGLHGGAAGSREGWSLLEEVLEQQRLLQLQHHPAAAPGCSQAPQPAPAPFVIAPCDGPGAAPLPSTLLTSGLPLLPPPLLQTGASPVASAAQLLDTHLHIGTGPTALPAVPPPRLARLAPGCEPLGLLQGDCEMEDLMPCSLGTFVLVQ
Histamine H3 receptor (Homo sapiens), sequence (Q9Y5N1 whole entry): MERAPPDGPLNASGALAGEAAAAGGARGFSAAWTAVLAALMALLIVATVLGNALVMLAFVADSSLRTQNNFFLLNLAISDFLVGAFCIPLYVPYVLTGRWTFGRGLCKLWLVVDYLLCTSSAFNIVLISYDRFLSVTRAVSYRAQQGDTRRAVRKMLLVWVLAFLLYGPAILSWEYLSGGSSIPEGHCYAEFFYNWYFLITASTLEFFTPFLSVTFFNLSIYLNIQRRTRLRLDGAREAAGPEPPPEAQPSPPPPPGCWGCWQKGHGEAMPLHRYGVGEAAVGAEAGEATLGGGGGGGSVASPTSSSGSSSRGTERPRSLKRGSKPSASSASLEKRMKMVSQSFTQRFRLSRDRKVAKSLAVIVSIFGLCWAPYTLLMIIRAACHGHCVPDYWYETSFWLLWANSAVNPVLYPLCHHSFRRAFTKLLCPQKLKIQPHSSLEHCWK

With Cn1cncc1[C@@](O)(COc1ccc(C#N)cc1-c1ccc(OC(F)(F)F)cc1)c1ccc(C#N)cc1 [A-108] the residual activity [1] was 92%, the residual activity [2] was 100% and the residual activity [3] was 100%. For the same compound, the residual activity [4] was 64%, the residual activity [5] was 100% and the residual activity [6] was 98%. For the same compound, the residual activity [7] was 100%, the residual activity [8] was 100% and the residual activity [9] was 97%. For the same compound, the residual activity [10] was 94%, the residual activity [11] was 38% and the residual activity [12] was 74%. The residual activity [13] was 97%, the residual activity [14] was 100% and the residual activity [15] was 100%. It also gave a residual activity [16] of 77%, a residual activity [17] of 98% and a residual activity [18] of 97%. It also gave a residual activity [19] of 100%, a residual activity [20] of 100% and a residual activity [21] of 94%. It also gave a residual activity [22] of 100%, a residual activity [23] of 100% and a residual activity [24] of 81%. The residual activity [25] was 81%, the residual activity [26] was 84% and the residual activity [27] was 92%. For the same compound, the residual activity [28] was 86%, the residual activity [29] was 84% and the residual activity [30] was 100%. It also gave a residual activity [31] of 98%, a residual activity [32] of 98% and a residual activity [33] of 92%. The residual activity [34] was 100%, the residual activity [35] was 100% and the residual activity [36] was 100%. It also gave a residual activity [37] of 69%, a residual activity [38] of 93% and a residual activity [39] of 100%. It also gave a residual activity [40] of 92%, a residual activity [41] of 100% and a residual activity [42] of 100%. The inhibition [43] was 17.8%, the inhibition [44] was 20% and the inhibition [45] was 92.3%.

Cn1cncc1[C@](O)(COc1ccc(C#N)cc1-c1ccc(OC(F)(F)F)cc1)c1ccc(C#N)cc1 [ABT-100] showed a residual activity [1] of 100%, a residual activity [2] of 81% and a residual activity [3] of 91%. The residual activity [4] was 75%, the residual activity [5] was 100% and the residual activity [6] was 85%. The residual activity [7] was 100%, the residual activity [8] was 66% and the residual activity [9] was 77%. It also gave a residual activity [10] of 99%, a residual activity [11] of 58% and a residual activity [12] of 79%. It also gave a residual activity [13] of 77%, a residual activity [14] of 91% and a residual activity [15] of 100%. It also gave a residual activity [16] of 100%, a residual activity [17] of 100% and a residual activity [18] of 100%. The residual activity [19] was 71%, the residual activity [20] was 95% and the residual activity [21] was 76%. For the same compound, the residual activity [22] was 78%, the residual activity [23] was 94% and the residual activity [24] was 68%. It also gave a residual activity [25] of 78%, a residual activity [26] of 83% and a residual activity [27] of 92%. For the same compound, the residual activity [28] was 100%, the residual activity [29] was 85% and the residual activity [30] was 100%. The residual activity [31] was 99%, the residual activity [32] was 95% and the residual activity [33] was 100%. The residual activity [34] was 100%, the residual activity [35] was 95% and the residual activity [36] was 79%. For the same compound, the residual activity [37] was 74%, the residual activity [38] was 80% and the residual activity [39] was 100%. It also gave a residual activity [40] of 56%, a residual activity [41] of 61% and a residual activity [42] of 100%. It also gave an inhibition [43] of 5.92%, an inhibition [44] of 8.46% and an inhibition [45] of 42.5%.
